Experimental findings from patent publication US20250368633A1, “AZEPINE FUSED RING COMPOUND AS RIPK1 INHIBITOR AND USE THEREOF” (ARTIVILA BIOPHARMA, priority 2022, published 2025) are described below.

The target in one experiment is T1, RIPK1 kinase (Homo sapiens, UniProt Q13546).
T1 construct: purchased Promega VA7593
T1 sequence (Q13546 1-671): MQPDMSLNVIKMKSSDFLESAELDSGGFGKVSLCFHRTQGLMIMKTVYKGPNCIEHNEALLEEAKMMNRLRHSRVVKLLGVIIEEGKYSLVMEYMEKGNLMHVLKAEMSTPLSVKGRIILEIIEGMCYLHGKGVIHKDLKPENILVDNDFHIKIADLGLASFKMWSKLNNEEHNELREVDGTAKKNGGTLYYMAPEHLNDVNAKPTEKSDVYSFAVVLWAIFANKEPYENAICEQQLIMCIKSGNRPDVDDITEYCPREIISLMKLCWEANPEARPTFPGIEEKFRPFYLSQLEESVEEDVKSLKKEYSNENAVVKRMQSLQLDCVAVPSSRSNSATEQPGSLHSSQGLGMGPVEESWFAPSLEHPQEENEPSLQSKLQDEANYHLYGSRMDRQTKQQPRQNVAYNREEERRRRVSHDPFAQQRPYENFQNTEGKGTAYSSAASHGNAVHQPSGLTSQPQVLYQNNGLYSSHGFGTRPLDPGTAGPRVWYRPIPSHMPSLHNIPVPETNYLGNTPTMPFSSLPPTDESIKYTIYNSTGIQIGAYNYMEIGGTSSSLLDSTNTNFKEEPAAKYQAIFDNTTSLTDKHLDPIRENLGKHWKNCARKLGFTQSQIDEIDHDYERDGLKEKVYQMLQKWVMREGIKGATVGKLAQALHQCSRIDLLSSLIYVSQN
Nature of the experiment: In vitro RIPK1 kinase activity assay (ADP-Glo), inhibition by compounds at 1 μM. The format is biochemical. The conditions noted are these: compound 1 μM; ATP 10 μM; MBP substrate 100 μg/mL; read-out: RIPK1 kinase activity inhibition rate range. In outline: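 Compound and RIPK1 were preincubated 15 min at room temperature, then reacted 1 h with 10 μM ATP and 100 μg/mL MBP substrate in kinase buffer D. ADP formed was measured by ADP-Glo luminescence and converted to percent inhibition of kinase activity.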
A general note: ADP-Glo first removes unused ATP, then detects ADP through luciferase.

Experiment [1] has as its system U937 cells. Nature of the experiment: Inhibition rate of compound (1 μM) on necroptosis of U937 cells (TSZ-induced, CellTiter-Glo). The format is cell-based. The conditions noted are these: TSZ (hTNF-α, SM-164, Z-VAD-FMK) 20 hours. In outline: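 U937 cells were pretreated 15 min with compound, then necroptosis was triggered with TSZ (Z-VAD-FMK, hTNF-α, SM-164) for 20 h at 37° C. Viability was read as ATP by CellTiter-Glo luminescence, and inhibition (%) was taken relative to no-TSZ and TSZ-only wells.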
(In general: ATP-based viability assays read luminescence as a measure of living cells.)

In experiment [2] the test system is U937 cells. Nature of the experiment: EC50 of necroptosis inhibition in U937 cells (TSZ-induced, CellTiter-Glo). Format: cell-based. The note with it: Homo sapiens, U-937; TSZ (hTNF-α, SM-164, Z-VAD-FMK) 20 hours; 10 concentration points; read-out: EC50 intervals of necroptosis inhibition in U937 cells. In outline: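 U937 cells pretreated 15 min with compound (10-point, 1:3 series), then necroptosis induced by TSZ (hTNF-α, SM-164, Z-VAD-FMK) for 20 h at 37 °C. Viability measured as ATP by CellTiter-Glo luminescence; inhibition normalised to untreated and TSZ-only wells, EC50 from four-parameter fit.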

The structures appear in SMILES notation.

Usually inhibition stands for the share of the control response that was lost under treatment. A word on the EC50: it is the concentration that produces a half-maximal response. For `C[C@@H](NC(=O)C(=O)N[C@H]1COc2ccc(C#CCn3ccnc3)cc2N(C)C1=O)c1ccccc1` [Example 134, N^1-((S)-7-(3-(1H-imidazol-1-yl)prop-1-yn-1-yl)-5-methyl-4-oxo-2,3,4,5-tetrahydrobenzo[b][1,4]oxazepin-3-yl)-N^2-((R)-1-phenylethyl)oxalamide], the inhibition at 1 µM at RIPK1 kinase lay within 50 to 74%. Also, the “Inhibition rate range of compounds (1 μM) on U937 cell necroptosis” value (“Inhibition rate range of compounds” for short) in the experiment with U937 cells [1] is on record as “A (A: ≥90%)”. In addition, the EC50 with U937 cells [2] is less than 100 nM.
The corresponding values for `C[C@@H](NC(=O)C(=O)N[C@H]1COc2ccc(C#CC3CCNCC3)cc2N(C)C1=O)c1ccccc1` [Example 135, N^1-((S)-5-methyl-4-oxo-7-(piperidin-4-ylethynyl)-2,3,4,5-tetrahydrobenzo[b][1,4]oxazepin-3-yl)-N^2-((R)-1-phenylethyl)oxalamide] are 25 to 49%, “A (A: ≥90%)” and less than 100 nM.
Taken in the same sequence, the figures for `C[C@@H](NC(=O)C(=O)N[C@H]1COc2ccc(C#CC3CCN(C)CC3)cc2N(C)C1=O)c1ccccc1` [Example 136, N^1-((S)-5-methyl-7-((1-methylpiperidin-4-yl)ethynyl)-4-oxo-2,3,4,5-tetrahydrobenzo[b][1,4]oxazepin-3-yl)-N^2-((R)-1-phenylethyl)oxalamide] were 25 to 49%, “A (A: ≥90%)” and less than 100 nM.
The corresponding values for `C[C@@H](NC(=O)C(=O)N[C@H]1COc2ccc(C#CCN3CCNCC3)cc2N(C)C1=O)c1ccccc1` [Example 142, N^1-((S)-5-methyl-4-oxo-7-(3-(piperazin-1-yl)prop-1-yn-1-yl)-2,3,4,5-tetrahydrobenzo[b][1,4]oxazepin-3-yl)-N^2-((R)-1-phenylethyl)oxalamide] are no less than 75%, “A (A: ≥90%)” and less than 100 nM.
In the case of `CC(=O)N1CCN(CC#Cc2ccc3c(c2)N(C)C(=O)[C@@H](NC(=O)C(=O)N[C@H](C)c2ccccc2)CO3)CC1` [Example 143, N^1-((S)-7-(3-(4-acetylpiperazin-1-yl)prop-1-yn-1-yl)-5-methyl-4-oxo-2,3,4,5-tetrahydrobenzo[b][1,4]oxazepin-3-yl)-N^2-((R)-1-phenylethyl)oxalamide], the inhibition at 1 µM at RIPK1 kinase was no less than 75%. Moreover, in the experiment on U937 cells [1], the “Inhibition rate range of compounds” value is on record as “A (A: ≥90%)”. In addition, the concentration giving a half-maximal response (EC50) in the experiment with U937 cells [2] was less than 100 nM.
The corresponding values for `C[C@@H](NC(=O)C(=O)N[C@H]1COc2ccc(C#CC3CN(C)C3)cc2N(C)C1=O)c1ccccc1` [Example 147, N^1-((S)-5-methyl-7-((1-methylazetidin-3-yl)ethynyl)-4-oxo-2,3,4,5-tetrahydrobenzo[b][1,4]oxazepin-3-yl)-N^2-((R)-1-phenylethyl)oxalamide] are no less than 75%, “A (A: ≥90%)” and less than 100 nM.
For the molecule `C=CC(=O)N1CC(C#Cc2ccc3c(c2)N(C)C(=O)[C@@H](NC(=O)C(=O)N[C@H](C)c2ccccc2)CO3)C1` [Example 149, N^1-((S)-7-((1-acryloylazetidin-3-yl)ethynyl)-5-methyl-4-oxo-2,3,4,5-tetrahydrobenzo[b][1,4]oxazepin-3-yl)-N^2-((R)-1-phenylethyl)oxalamide], the inhibition at 1 µM at RIPK1 kinase is no less than 75%. For the same molecule, the “Inhibition rate range of compounds” value in the experiment with U937 cells [1] is “A (A: ≥90%)”. Besides, the half-maximal effective concentration (EC50) in the experiment with U937 cells [2] was less than 100 nM.
Taken in the same sequence, the figures for `C[C@@H](NC(=O)C(=O)N[C@H]1COc2ccc(C#CC3CN(N=O)C3)cc2N(C)C1=O)c1ccccc1` [Example 151, N^1-((S)-5-methyl-7-((1-nitrosoazetidin-3-yl)ethynyl)-4-oxo-2,3,4,5-tetrahydrobenzo[b][1,4]oxazepin-3-yl)-N^2-((R)-1-phenylethyl)oxalamide] were 25 to 49%, “A (A: ≥90%)” and less than 100 nM.
The corresponding values for `C[C@@H](Cc1ccccc1)NC(=O)C(=O)N[C@H]1COc2ccc(C#CCCO)cc2N(C)C1=O` [Example 152, N^1-((S)-7-(4-hydroxybut-1-yn-1-yl)-5-methyl-4-oxo-2,3,4,5-tetrahydrobenzo[b][1,4]oxazepin-3-yl)-N^2-((S)-1-phenylpropan-2-yl)oxalamide] are 50 to 74%, “A (A: ≥90%)” and 100 to 500 nM.
Taken in the same sequence, the figures for `C[C@H](Cc1ccccc1)NC(=O)C(=O)N[C@H]1COc2ccc(C#CCCO)cc2N(C)C1=O` [Example 153, N^1-((S)-7-(4-hydroxybut-1-yn-1-yl)-5-methyl-4-oxo-2,3,4,5-tetrahydrobenzo[b][1,4]oxazepin-3-yl)-N^2-((R)-1-phenylpropan-2-yl)oxalamide] were 50 to 74%, “A (A: ≥90%)” and 100 to 500 nM.
Take `CN1C(=O)[C@@H](NC(=O)C(=O)NC(C)(C)c2ccccc2)COc2ccc(C#CCN3CCOCC3)cc21` [Example 160, (S)—N^1-(5-methyl-7-(3-morpholinoprop-1-yn-1-yl)-4-oxo-2,3,4,5-tetrahydrobenzo[b][1,4]oxazepin-3-yl)-N^2-(2-phenylpropan-2-yl)oxalamide]: the inhibition at 1 µM on RIPK1 kinase is no less than 75%. For the same molecule, the “Inhibition rate range of compounds” value with U937 cells [1] is “A (A: ≥90%)”. In addition, in the experiment on U937 cells [2], the EC50 is less than 100 nM.
The corresponding values for `C[C@@H](NC(=O)C(=O)N[C@H]1COc2ccc(C#CC[N+]3([O-])CCOCC3)cc2N(C)C1=O)c1ccccc1` [Example 161, 4-(3-((S)-5-methyl-4-oxo-3-(2-oxo-2-(((R)-1-phenylethyl)amino)acetamido)-2,3,4,5-tetrahydrobenzo[b][1,4]oxazepin-7-yl)prop-2-yn-1-yl) morpholine 4-oxide] are 50 to 74%, “A (A: ≥90%)” and less than 100 nM.
Taken in the same sequence, the figures for `Cc1ncsc1-c1ccc(CNC(=O)[C@@H]2C[C@@H](O)CN2C(=O)[C@@H](NC(=O)COCCOCCN2CCN(CC#Cc3ccc4c(c3)N(C)C(=O)[C@@H](NC(=O)C(=O)N[C@H](C)c3ccccc3)CO4)CC2)C(C)(C)C)cc1` [Example 162, N^1-((S)-7-(3-(4-(2-(2-(2-(((S)-1-((2S,4R)-4-hydroxy-2-((4-(4-methylthiazol-5-yl)benzyl)carbamoyl)pyrrolidin-1-yl)-3,3-dimethyl-1-oxobutan-2-yl)amino)-2-oxoethoxy)ethoxy)ethyl)piperazin-1-yl)prop-1-yn-1-yl)-5-methyl-4-oxo-2,3,4,5-tetrahydrobenzo[b][1,4]oxazepin-3-yl)-N^2-((R)-1-phenylethyl)oxalamide] were no less than 75%, “A (A: ≥90%)” and 100 to 500 nM.
With `Cc1ncsc1-c1ccc(CNC(=O)[C@@H]2C[C@@H](O)CN2C(=O)[C@@H](NC(=O)CCOCCOCCOCCN2CCN(CC#Cc3ccc4c(c3)N(C)C(=O)[C@@H](NC(=O)C(=O)N[C@H](C)c3ccccc3)CO4)CC2)C(C)(C)C)cc1` [Example 163, N^1-((S)-7-(3-(4-((S)-14-((2S,4R)-4-hydroxy-2-((4-(4-methylthiazol-5-yl)benzyl)carbamoyl)pyrrolidine-1-carbonyl)-15,15-dimethyl-12-oxo-3,6,9-trioxa-13-azahexadecyl)piperazin-1-yl)prop-1-yn-1-yl)-5-methyl-4-oxo-2,3,4,5-tetrahydrobenzo[b][1,4]oxazepin-3-yl)-N^2-((R)-1-phenylethyl)oxalamide], at RIPK1 kinase, the inhibition at 1 µM was no less than 75%. In the experiment with U937 cells [1], the “Inhibition rate range of compounds” value was “A (A: ≥90%)”. Besides, in the experiment on U937 cells [2], the EC50 is less than 100 nM.
Taken in the same sequence, the figures for `C[C@@H](NC(=O)C(=O)N[C@H]1CN(C)c2ccc(C#CCN3CCOCC3)cc2N(C)C1=O)c1ccccc1` [Example 166, N^1-((S)-1,5-dimethyl-8-(3-morpholinoprop-1-yn-1-yl)-2-oxo-2,3,4,5-tetrahydro-1H-benzo[b][1,4]diazepin-3-yl)-N^2-((R)-1-phenylethyl)oxalamide] were 25 to 49%, “A (A: ≥90%)” and less than 100 nM.
